The source of these data is patent US20250388584A1, “TPK AGONIST AND METHOD FOR TREATING NEURODEGENERATIVE DISEASES USING SAME” (SHANGHAI RAISING PHARMACEUTICAL CO., LTD., priority 2022, published 2025).

The experiment has as its target TPK enzyme (Homo sapiens (Human), UniProt Q9H3S4). Description: TPK enzyme activity test. The note with it: for Emax: calculated with the effect of DMSO on TPK enzyme activity as 100%; for EC50: promoting effect on TPK enzyme activity. The class given is biochemical.

Broadly, the Emax is the greatest response seen or fitted, relative to the assay's reference. For orientation: EC50 means the concentration at which the effect is half-maximal. Lower therefore signals higher potency in that assay.

Each structure is given as a SMILES string. Counter-ions that a name gives are not always drawn. Like-named read-outs stand apart in the source and are kept apart here.

TPK enzyme, sequence (Q9H3S4 whole entry): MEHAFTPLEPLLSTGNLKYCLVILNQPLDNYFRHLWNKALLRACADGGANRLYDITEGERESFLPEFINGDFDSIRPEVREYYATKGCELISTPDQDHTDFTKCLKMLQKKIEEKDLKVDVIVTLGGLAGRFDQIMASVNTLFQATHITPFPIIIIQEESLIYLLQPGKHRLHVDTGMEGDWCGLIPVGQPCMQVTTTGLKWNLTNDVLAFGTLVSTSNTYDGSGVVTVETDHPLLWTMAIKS

`Cc1ccc(N2CCN(C(=O)CCn3cnc4c([nH]c5ccc(C)cc54)c3=O)CC2)c(C)c1` [Compound 31]: a half-maximal effect (EC50) was put at 1210 nM. In addition, the Emax (read-out: Emax) is 151%. On the same counts, the results for `O=C(CCn1cnc2c(oc3ccc(F)cc32)c1=O)N1CCN(c2cccc(C(F)(F)F)c2)CC1` [Compound 148, 8-fluoro-3-(3-oxo-3-(4-(3-(trifluoromethyl)phenyl)piperazin-1-yl)propyl)benzofuro[3,2-d]pyrimidin-4 (3H)-one] are 1990 nM and 151%. On the same counts, the results for `COc1cccc(N2CCN(C(=O)Cn3cnc4c([nH]c5ccc(C)cc54)c3=O)CC2)c1` [Compound 45] are 1220 nM and 158%. For the compound `O=C(CCn1cnc2c(sc3ccccc32)c1=O)N1CCC(O)(c2cccc(C(F)(F)F)c2)CC1` [Compound 147, 3-(3-(4-hydroxy-4-(3-(trifluoromethyl)phenyl)piperidin-1-yl)-3-oxopropyl)benzo[4,5]thieno[3,2-d]pyrimidin-4(3H)-one], the EC50 worked out at 7720 nM. Further, for the setting “read-out: Emax”, the Emax is 160%. Turning to `Cc1ccc2[nH]c3c(=O)n(CCC(=O)N(C)CCN(C)c4cccc(C(F)(F)F)c4)cnc3c2c1` [Compound 92, N-methyl-N-(2-(methyl(3-(trifluoromethyl)phenyl)amino)ethyl)-3-(8-methyl-4-oxo-4,5-dihydro-3H-pyrimido[5,4-b]indol-3-yl)propanamide], the half-maximal effective concentration (EC50) worked out at 3560 nM. Besides, where the note is “read-out: Emax”, the maximal response (Emax) was 160%. In turn, `Cc1ccc2c(c1)-c1ncn(CCC(=O)N3CCC(Cc4ccc(F)cc4)CC3)c(=O)c1CC2` [Compound 225, 3-(3-(4-(4-fluorobenzyl)piperidin-1-yl)-3-oxopropyl)-9-methyl-5,6-dihydrobenzo[h]quinazolin-4(3H)-one] returned an EC50 of 930 nM. Regarding `O=C(CCn1cnc2c(oc3ccc(F)cc32)c1=O)N1CCC(O)(c2cccc(C(F)(F)F)c2)CC1` [Compound 151, 8-fluoro-3-(3-(4-hydroxy-4-(3-(trifluoromethyl)phenyl)piperidin-1-yl)-3-oxopropyl)benzofuro[3,2-d]pyrimidin-4(3H)-one], the concentration giving a half-maximal response (EC50) turned out to be 5980 nM. In addition, the Emax (read-out: Emax) was 189%. `O=C(CCn1cnc2c(c1=O)CCCc1ccccc1-2)N1CCN(c2cccc(C(F)(F)F)c2)CC1` [Compound 221, 3-(3-oxo-3-(4-(3-(trifluoromethyl)phenyl)piperazin-1-yl)propyl)-3,5,6,7-tetrahydro-4H-benzo[6,7]cyclohepta[1,2-d]pyrimidin-4-one] gave an EC50 of 1650 nM. Besides, the Emax (read-out: Emax) was 154%. Turning to `Cc1ccc2[nH]c3c(=O)n(CCC(=O)NCc4cccc(O)c4)cnc3c2c1` [Compound 82, N-(3-hydroxybenzyl)-3-(8-methyl-4-oxo-4,5-dihydro-3H-pyrimido[5,4-b]indol-3-yl)propanamide], under “read-out: Emax”, the Emax is 123%.

For `Cc1ccc2ncc3c(=O)n(CCCC(=O)N4CCC(Cc5ccc(F)cc5)CC4)cnc3c2c1` [Compound 218, 3-(4-(4-(4-fluorobenzyl)piperidin-1-yl)-4-oxobutyl)-9-methylpyrimido[5,4-c]quinolin-4(3H)-one], it took 617 nM to reach a half-maximal effect (EC50).

For `O=C(CCn1cnc2c([nH]c3ccc(F)cc32)c1=O)N1CCN(c2cccc(C(F)(F)F)c2)CC1` [Compound 153, 8-fluoro-3-(3-oxo-3-(4-(3-(trifluoromethyl)phenyl)piperazin-1-yl)propyl)-3,5-dihydro-4H-pyrimido[5,4-b]indol-4-one], the Emax is listed as 130.73% and the EC50 came to 3170 nM. On the same counts, the results for `Cc1ccc2c(c1)-c1nc(=O)n(CCC(=O)N3CCN(c4cccc(Cl)c4Cl)CC3)cc1CO2` [Compound 214] are 137.60% and 2380 nM.

As for `O=C1c2ccccc2CN1CCCN1CCSc2ccc(C(F)(F)F)cc21` [Compound 197, 2-(3-(6-(trifluoromethyl)-2,3-dihydro-4H-benzo[b][1,4]thiazin-4-yl)propyl)isoindolin-1-one], for the setting “read-out: Emax”, the Emax is 132%.

As to `O=C(CCn1cnc2c([nH]c3ccc(F)cc32)c1=O)N1CCN(c2cccc(C(F)(F)F)c2)CC1` [Compound 39], the Emax (read-out: Emax) was 139%. On to `Cc1ccc2c(c1)-c1ncn(CCCC(=O)N3CCCC(Cc4ccc(F)cc4)C3)c(=O)c1CC2` (centres unmarked) [Compound 223, 3-(4-(3-(4-fluorobenzyl)piperidin-1-yl)-4-oxobutyl)-9-methyl-5,6-dihydrobenzo[h]quinazolin-4(3H)-one], for which the maximal response (Emax) is reported as 152.22% and the EC50 worked out at 1330 nM. Regarding `Cc1ccc2[nH]c3c(=O)n(CCC(=O)N4CCN(c5ccc(Cl)c(Cl)c5)CC4)cnc3c2c1` [Compound 9, 3-(3-(4-(3,4-dichlorophenyl)piperazin-1-yl)-3-oxopropyl)-8-methyl-3,5-dihydro-4H-pyrimido[5,4-b]indol-4-one], the 50% effective concentration (EC50) is 768 nM. Where the note is “read-out: Emax”, the Emax is 147%. On to `Cc1ccc2[nH]c3c(=O)n(CCC(=O)N4CCN(c5ccc(C(F)(F)F)cc5)CC4)cnc3c2c1` [Compound 10, 8-methyl-3-(3-oxo-3-(4-(4-(trifluoromethyl)phenyl)piperazin-1-yl)propyl)-3,5-dihydro-4H-pyrimido[5,4-b]indol-4-one], for which the response was half-maximal at 1150 nM (EC50). Where the note is “read-out: Emax”, the maximal response (Emax) was 157%. On to `Cc1ccc2[nH]c3c(=O)n(CC(=O)N4CCN(c5cccc(C(F)(F)F)c5)CC4)cnc3c2c1` [Compound 41], for which the Emax (read-out: Emax) is 141%. Take `Cc1ccc2c(c1)-c1nc(=O)n(CCCC(=O)N3CCC(Cc4ccc(F)cc4)CC3)cc1CO2` [Compound 220, 3-(4-(4-(4-fluorobenzyl)piperidin-1-yl)-4-oxobutyl)-9-methyl-3,5-dihydro-2H-chromeno[4,3-d]pyrimidin-2-one]: the EC50 was 3890 nM. The Emax (read-out: Emax) is 157%. As to `O=c1c2c(ncn1CCCN1CCN(c3cccc(Cl)c3Cl)CC1)-c1ccccc1CCC2` [Formate salt of 222, 3-(3-(4-(2,3-dichlorophenyl)piperazin-1-yl)propyl)-3,5,6,7-tetrahydro-4H-benzo[6,7]cyclohepta[1,2-d]pyrimidin-4-one Formate], the maximum response (Emax) was 143% and the half-maximal effective concentration (EC50) came out at 500 nM. On to `O=C1CCc2ccc(OCCCCN3c4ccccc4Sc4ccc(C(F)(F)F)cc43)cc2N1` [Compound 204], for which the maximal effect (Emax) is on record as 186.22% and the EC50 amounted to 107 nM. In turn, `O=C1CCCCN1CCCN1c2ccccc2Sc2ccccc21` [Compound 186, 1-(3-(10H-phenothiazin-10-yl)propyl)piperidin-2-one] came in with an EC50 of 2660 nM. Besides, the maximal response (Emax) (read-out: Emax) is 176%. Turning to `Cc1ccc2[nH]c3c(=O)n(CCC(=O)N4CCN(c5ccccc5C(F)(F)F)CC4)cnc3c2c1` [Compound 4, 8-methyl-3-(3-oxo-3-(4-(2-(trifluoromethyl)phenyl)piperazin-1-yl)propyl)-3,5-dihydro-4H-pyrimido[5,4-b]indol-4-one], the maximal effect (Emax) (read-out: Emax) was 128%. Still for that read-out and setting: the result for `O=C1CCCCN1CCCCCCN1C(=O)CSc2ccc(C(F)(F)F)cc21` [Compound 195, 4-(6-(2-oxopiperidin-1-yl)hexyl)-6-(trifluoromethyl)-2H-benzo[b][1,4]thiazin-3(4H)-one] reads 136%. For `Cc1ccc2[nH]c3c(=O)n(CCC(=O)N4CCN(c5ccc(F)cc5)CC4)cnc3c2c1` [Compound 46], the maximum response (Emax) is 122.50%.
